# From patent US20260158021A1, “PREVENTION AND TREATMENT OF ORGAN FIBROSIS” (CORNELL UNIVERSITY, priority 2018, published 2026)
# Experiments:
# [1] = system: human lung fibroblasts; experiment: Collagen secretion by human lung fibroblasts (newly secreted collagen in supernatant, Sircol); format: cell-based; details: for collagen secretion: RXD, normalized for total protein
# Experimental: (§1) Human lung fibroblasts were exposed to TGF-β (10 ng/ml) or co-cultured with EXO([…]), and supernatants were collected for measurement of newly secreted collagen. […] Cell lysates were used to quantify total protein/well for normalization. Data are means±SEM of three separate experiments (n=3), each point run in triplicate. *P<0.05, ***P<0.001, ***P<0.0001.
# (§2) FIG. 19A-19E. […] C. […] Actin was run as the loading control. […] All assays were performed in triplicate.
# (FIG. 3A). All values presented are normalized for total protein.
# [2] = system: C-P4H; experiment: C-P4H abundance in stimulated human fibroblasts (immunofluorescence, Western blot); format: cell-based; details: for C-P4H immunofluorescence intensity: human fibroblasts exposed to TGF-β or mast cell exosomes
# Experimental: FIG. 9. Roxadustat inhibits the increase in C-[…] in stimulated human fibroblasts. Immunoexpression of prolyl-4-hydroxylase […]). […] FIG. 19A-19E. […] C. […] Actin was run as the loading control. […] All assays were performed in triplicate.
# [3] = system: bleomycin-induced pulmonary fibrosis; experiment: Bleomycin experimental mouse model of pulmonary fibrosis; format: in vivo, mice (C57BL/6J)
# Description: FIG. 11A-11B. In Vivo Murine Model of pulmonary fibrosis. […] Representative micrographs of Masson's trichrome-stained lungs from bleomycin-treated mice from the 14d time point. […] FIG. 12. […] Sal=Saline vehicle. FIG. 20A-20E. […] NS=not significant. N=5 mice/group. Scale bar=250 μm. […] Mice were sacrificed on day 21.
# [4] = system: human lung fibroblasts; experiment: Fibroblast migration/accumulation/foci formation in transwell plates; format: cell-based; details: qualitative; +TGF-β (10 ng/ml) +RXD (10 mg/ml)
# [5] = system: mast cells (human mastocytoma cells); experiment: Mast cell degranulation after high oxygen and recovery in room air (β-hexosaminadase, tryptase release); format: cell-based; details: 72 h; 1 day high oxygen then 2 days room air (HO^rec) +RXD 10 mg/ml
# Experimental: FIG. 5A-5C. […] C. […] NS=not significant
# Mast cell degranulation was assessed by measuring the release of β-hexosaminadase (β-hex), a classic indicator of mast cell degranulation (FIG. 5A) and Tryptase (FIG. 5B). […] This protocol was designed to mimic the clinical protocol of giving IPF patients hospitalized with acute exacerbations high oxygen then followed by return to room air.
# [6] = system: UUO kidney; experiment: Unilateral ureteral obstruction (UUO) model of renal fibrosis, Masson's trichrome collagen staining; format: in vivo, Mice C57BL/6J
# Experimental: All animal treatments and experiments were approved by the Institutional Animal Care and Use Committee of Weill Cornell Medical College. Mice were anesthetized intraperitoneally with a cocktail of ketamine (90 mg/kg) and xylazine (4 mg/kg). Mice C57BL/6J) underwent right unilateral ureteral ligation with 4-0 silk suture through an abdominal midline incision under sterile conditions. Sham-operated control (CON) animals underwent identical operations, however, with manipulation of the right ureter only. Delivery of Roxadustat (10 mg/kg) on days 0, 2, 4, 6, 8, was administered IP. Mice were sacrificed on Day 14.
# Kidneys were harvested and fixed in 10% neutral buffered formalin followed by embedding in paraffin. Sections (5 um) were collected and Masson's trichrome staining was performed using a kit (Richard-Allen Scientific) to detect collagen (blue stain). Slides of paraffinized tissue sections were deparaffinized, rehydrated, and washed in distilled water. Sections were subsequently stained using components from the trichrome kit and according to the manufacturer's protocol. After dehydrating and clearing in xylene, the sections were mounted with coverslips in Vectamount (Vector Laboratories). Tissue sections were examined with an inverted epifluorescence microscope (Nikon Eclipse TE 2000-U) interfaced to a SPOT Insight 2 megapixel color camera (Diagnostic Instruments).
# [7] = system: human lung fibroblasts; experiment: Fibroblast proliferation by total protein content of fibroblast cell lysates; format: cell-based; details: +RXD+TGF-β; control 0.800, +TGF-β 1.138
# Experimental: as §1
# [8] = system: smooth muscle actin (SMA); experiment: Western blot of smooth muscle actin (SMA) in lung fibroblasts; format: cell-based, human; details: Western blotting
# [9] = system: c-P4H tetramer; experiment: Non-denaturing Western blot of human lung fibroblast homogenates probed for c-P4H α-subunit; format: cell-based; details: RXD 10 mg/ml; alone, +EXO, +TGF-β
# Experimental: FIG. 4. […] Western blotting on a gradient gel was performed on human lung fibroblast homogenates in non-denaturing conditions and probed with anti-α-subunit monomer (60 kD). Tetramer is found at 240 kD at arrow.
# [10] = system: HLF; experiment: Proline hydroxylation (LC-MC of extracted proteins) and hydroxyproline content in HLF; format: cell-based, human
# Experimental: as §2
structure (smiles),measurement,setting,value
Cc1nc(C(=O)NCC(=O)O)c(O)c2ccc(Oc3ccccc3)cc12 [RXD],secreted collagen (Sircol),"[1]; FIG. 19E, HLF untreated and treated with +MC-EXO and +TGF-β",blocked
same,collagen secretion,[1]; fibroblasts co-cultured with mast cell exosomes (40 g/ml),inhibits collagen secretion
same,collagen secretion,[1]; fibroblasts exposed to exogenous TGF-β1 (10 ng/ml),inhibits collagen secretion
same,collagen secretion,[1]; untreated fibroblasts,inhibits collagen secretion
same,C-P4H abundance in Western blots,"[2]; HLF lysates +MC-EXO and +TGFβ, actin loading control",decreased C-P4H abundance
same,C-P4H immunofluorescence intensity,[2],inhibited the increase in C-P4H fluorescence intensity
same,C-P4H immunofluorescence intensity,[2]; listed as Roxadustat,inhibits the increase in C-P4H
same,"severity of fibrosis, Masson's trichrome stained lungs","[3]; RXD 10 mg/kg days 7-19 every other day, sacrifice day 21",lessened the severity of fibrosis
same,lung hydroxyproline content,"[3]; RXD 10 mg/kg days 7-19 every other day, sacrifice day 21, P<0.01 Bleo versus Bleo+RXD",significantly decreased
same,number of mast cells in vivo in pulmonary fibrosis,"[3]; bleo vs bleo+RXD, P<0.05",reduced
same,lung compliance (pulmonary function tests),[3]; bleomycin-induced decrease,normalizes the bleomycin-induced decrease in lung compliance
same,"pulmonary fibrosis, Masson's trichrome-stained lungs","[3]; bleomycin-treated mice, 14d time point",reduced
same,"fibroblast migration, accumulation, and foci formation",[4],"prevents fibroblast migration, accumulation, and foci formation"
same,mast cell degranulation (β-hexosaminadase and mast cell tryptase in supernatants),[5],decreases mast cell degranulation
same,"renal fibrosis, collagen staining of UUO kidney cortex and medulla","[6]; Roxadustat 10 mg/kg IP days 0, 2, 4, 6, 8, Day 14",lessened the fibrosis
same,"quantified collagen (blue) staining, UUO kidney cortex and medulla","[6]; pixel by pixel, P<0.0001 UUO vs UUO+RXD in cortex and in medulla",Reduces Fibrosis
same,"quantified collagen staining, control cortex and medulla with and without RXD",[6]; sham control kidneys,no significant difference
same,total protein content of fibroblast cell lysates (fibroblast proliferation),[7],0.828 μg/ml/well
same,SMA abundance,[8],decreased
same,α-subunit monomer abundance (60 kD band),[9],increased the α-subunit monomer abundance in all cases
same,proline hydroxylation in collagens 1 and 3,[10]; LC-MC analysis of HLF extracted proteins,prevented proline hydroxylation
same,hydroxyproline in HLFs,[10]; TGF-β-induced increase,inhibited the TGF-β-induced increase in hydroxyproline
